From US20100055147A1, “ANGIOTENSIN (1-7) ELUTING STENT” (priority 2006, published 2010)

What was measured:
[1] = system: rat bone marrow mononuclear cells (MNC) and endothelial progenitor cells (EPC); assay: Cultured rat bone marrow mononuclear cells (MNC) and endothelial progenitor cells (EPC); format: cell-based; conditions: 10^−7 mol/L, 7 days of culture
Method: Five rats were sacrificed by exsanguination under O2, N2O and isoflurane anaesthesia. Bone marrow was isolated from the left and right femurs by flushing the bone marrow cavity with sterile phosphate-buffered saline at room temperature (PBS, Gibco, Invitrogen, Breda, The Netherlands). From each individual rat, MNC were obtained by density gradient centrifugation at 2000 rpm (MSE Mistral 3000i, UK) for 20 minutes at room temperature according to manufacturer's instruction (Cedarlane Laboratories ltd., Hornby, Canada). Cells from individual rats were then resuspended in endothelial cell basal medium-2 (EGM; Cambrex Bioproducts, Clonetics, New Jersey, USA) containing supplemented 2% fetal bovine serum and EGM-2 SingleQuots (Clonetics). At day 1, 5×10^5 cells/well were seeded in 1% gelatin (225 bloom, Sigma-Aldrich, Zwijndrecht, The Netherlands) precoated 96-well culture plates (Costar, Corning, N.Y., USA) at 37° C. in a humidified incubator in the presence of 5% CO2. At day 3 of culture, medium with non-attached cells was removed, and replaced by fresh culture medium containing Ang-(1-7) at 10^−7 mol/L with or without antagonists (treatment medium). Next, cells were grown for 7 days, changing treatment medium at day 5 and day 7. At day 9, treatment medium was removed and culture medium supplemented with 10 μg/mL acetylated low-density lipoprotein (Dil-Ac-LDL) was added to the cells for 4 h. […]
Detection of staining was performed with the use of fluorescence microscopy (Leica, Wetzlar, Germany) at a magnification of 200×. […] Cells were quantified with the use of ImagePro software (Media Cybernetics, Silver Spring, USA). In the occasion that the presence of cell clusters hindered proper digital quantification, cell numbers were assessed by hand. […]
To this purpose MNC were isolated from rat bone marrow and cultured for 2 days to allow attachment. […] To determine if Ang-(1-7) preferentially stimulated EPC, the number of EPC was expressed as a percentage of the total population of MNC (FIG. 6B). […]

[2] = system: brachial artery; assay: Small vessel myograph, brachial artery rings four weeks after stenting; format: in vivo, rat; conditions: minipump infusion
Excerpt: (§1) Specific pathogen-free, male Wistar rats (Harlan, Horst, Netherlands) were fed standard rat chow and water ad libitum. For Ang-(1-7) administration by minipump, 28 rats were used. The animals were anaesthetised with O2, N2O and isoflurane (Abbot B.V., Hoofddorp, Netherlands). In 20 animals, bare metal stents (Medtronic Driver® 2.5×8 mm stents) were placed in the abdominal aorta. Upon stent placement, osmotic minipumps (Model 2004, Alzet, Charles River, Maastricht, The Netherlands) were implanted subcutaneously for drug delivery via a catheter in the jugular vein. The pumps infused either Ang-(1-7) (Bachem, Well am Rhein, Germany) (24 μg/kg/h) (n=10) or saline (0.25 μl/h) (n=10). Furthermore, a control group underwent sham surgery (n=8: surgery identical to stent groups, but without balloon insertion and stenting), and received an osmotic minipump releasing saline. Treatment continued for four weeks. […]
(§2) Iliac and brachial arteries were prepared under a dissection microscope in Krebs solution that was kept at 4° C. […] After this, vessels were brought to tension in 20 μm steps until reaching a diameter corresponding to 100 mmHg transmural pressure (L100, calculated by exponential curve fitting with Excel software). […] All responses were recorded in grams tension. The responses to MeCh were expressed as the percent decrease in PE EC70 responses.

[3] = system: isolated thoracic aorta rings; assay: Organ bath, isolated thoracic aortic rings four weeks after stenting; format: in vivo, rat; conditions: minipump infusion, FIG. 5
Excerpt: (§3) Specific pathogen-free, male Wistar rats (Harlan, Horst, Netherlands) were fed standard rat chow and water ad libitum. For Ang-(1-7) administration by minipump, 28 rats were used. The animals were anaesthetised with O2, N2O and isoflurane (Abbot B.V., Hoofddorp, Netherlands). In 20 animals, bare metal stents (Medtronic Driver® 2.5×8 mm stents) were placed in the abdominal aorta. Upon stent placement, osmotic minipumps (Model 2004, Alzet, Charles River, Maastricht, The Netherlands) were implanted subcutaneously for drug delivery via a catheter in the jugular vein. The pumps infused either Ang-(1-7) (Bachem, Well am Rhein, Germany) (24 μg/kg/h) (n=10) or saline (0.25 μl/h) (n=10). Furthermore, a control group underwent sham surgery (n=8: surgery identical to stent groups, but without balloon insertion and stenting), and received an osmotic minipump releasing saline. Treatment continued for four weeks. Five rats were excluded because of technical failure (aortic leakage or minipump failure) resulting in n=7 for Ang-(1-7) infusion, n=10 for saline infusion, and n-6 for sham-operated rats.
To test the effect of Ang-(1-7)-eluting stents (see Example 1 for details), 36 rats underwent placement of three types of stents into the abdominal aorta, bare metal stents, stents coated with polymer alone, or stents coated with polymer containing approximately 90 μg Ang-(1-7). Six rats were excluded because of technical failure during surgery, and three stents could not be processed due to incomplete polymerisation of embedding plastic (see below) leaving n=9 for bare metal stent, n=10 for stent with polymer only and n=8 for stent with polymer+Ang-(1-7).
Twenty-eight days after stent implantation, the animals were anaesthetised with O2, N2O and isoflurane, and systemically heparinized with 500 IE intravenously (Leo Pharma B.V., Breda, The Netherlands). The stented abdominal aortas were harvested, fixed, embedded in methylmethacrylate, sectioned and stained for histological analysis as described previously. […]
The stented aortas were evaluated in organ bath studies with isolated vascular rings. […] The endothelium-dependent vasodilation was assessed by a cumulative dose of metacholine (MeCh; 10 nM to 0.1 mM). […] The NO-dependent vasodilation to metacholine was calculated, by subtraction of the vasodilation in the presence of L-NMMA from the total vasodilation. The PG-dependent vasodilation in response to MeCh was calculated by subtraction of the vasodilation in the presence of L-NMMA and indomethacin from the vasodilation in the presence of L-NMMA. The EDHF-dependent vasodilation was determined by the vasodilation to metacholine in the presence of L-NMMA and indomethacin. […]

[4] = system: iliac artery; assay: Small vessel myograph, iliac artery rings four weeks after stenting; format: in vivo, rat; conditions: FIG. 3
Excerpt: as §1, §2

[5] = system: neointima formation in the rat abdominal aorta; assay: Neointima area in stented rat abdominal aorta (histology); format: in vivo
Excerpt: as §3, with “rats. […]” for “rats.”
To determine if Ang-(1-7) infusion by minipump or elution from the stent reduced neointima formation, neointima area was measured in animals which received Ang-(1-7) either by stent or minipump (Table 1).

## angiotensin-(1-7) (DRVYIHP; listed as Homo sapiens) [Ang-(1-7)]
[1]; FIG. 6A
  number of EPC: increased
  number of MNC: increased
[1]; FIG. 6B
  relative number of EPC (percentage of total MNC): increased
[2]; brachial artery (remote), FIG. 4
  vasodilator function: improved
[2]; brachial artery, to the level of sham-operated rats
  vasoconstrictor responses to phenylephrine: decreased
[3]; thoracic aorta
  EDHF contribution to metacholine vasodilation: stimulated
  NO release (contribution to metacholine vasodilation): did not alter
  PG contribution to metacholine vasodilation: stimulated
[3]; stented group showed 40% decrease
  Emax of total response on metacholine: full recovery
[4]; chronic infusion by minipump, iliac artery (downstream)
  vasodilation upon stimulation with metacholine: increased
[4]; minipump infusion, iliac artery
  vasoconstrictions (phenylephrine): remained equal
[5]; infusion using a minipump
  neointimal formation (in words): reduction
[5]; minipump infusion 24 μg/kg/h for four weeks, bare metal stent in rat abdominal aorta, p < 0.05 vs. saline
  Neointima area NIA: 0.51 ± 0.05 mm²
